Measurements reported in PMC6255212, “Coupled molecular dynamics mediate long- and short-range epistasis between mutations that affect stability and aggregation kinetics” (Proceedings of the National Academy of Sciences of the …, 2018).

Target: T1, Escherichia coli transketolase (TK) (Escherichia coli, UniProt P27302)
T1 construct: gene tktA; homodimer of 70- to 74-kDa monomers; holo enzyme with ThDP and Mg2+
Experiment: steady-state enzyme kinetics
Format: biochemical
Conditions: 50 mM Li-HPA (lithium beta-hydroxypyruvate, saturating), 4-80 mM glycolaldehyde

T1 sequence (P27302 2-663): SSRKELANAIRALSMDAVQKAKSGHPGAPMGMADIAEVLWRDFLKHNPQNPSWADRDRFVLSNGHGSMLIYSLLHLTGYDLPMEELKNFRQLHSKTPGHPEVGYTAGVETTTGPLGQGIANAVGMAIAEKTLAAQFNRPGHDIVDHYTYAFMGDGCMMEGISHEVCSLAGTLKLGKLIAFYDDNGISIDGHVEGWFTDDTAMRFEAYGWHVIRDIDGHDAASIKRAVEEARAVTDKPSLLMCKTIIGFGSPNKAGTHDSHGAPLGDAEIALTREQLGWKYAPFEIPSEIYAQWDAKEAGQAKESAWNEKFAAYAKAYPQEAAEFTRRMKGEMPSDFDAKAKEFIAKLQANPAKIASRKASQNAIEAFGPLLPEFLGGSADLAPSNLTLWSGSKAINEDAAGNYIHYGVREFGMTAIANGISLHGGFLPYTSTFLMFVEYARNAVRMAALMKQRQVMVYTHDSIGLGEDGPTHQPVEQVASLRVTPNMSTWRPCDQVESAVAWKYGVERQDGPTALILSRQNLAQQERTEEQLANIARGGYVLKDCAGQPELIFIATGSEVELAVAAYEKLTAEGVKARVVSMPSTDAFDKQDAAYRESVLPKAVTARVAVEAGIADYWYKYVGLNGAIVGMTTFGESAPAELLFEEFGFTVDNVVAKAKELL

O=CCO [glycolaldehyde] gave a Km of 20.3 mM.
